This data set is described as follows: log P (Table 1). Type of data set: physicochemical.
For `CCCc1nc2ccc(N(CCC)C(=O)OCC(C)C)cc2c(=O)n1Cc1ccc(-c2ccccc2-c2nnn[nH]2)cc1` [Example 10], the logP was determined as 5.1. In the case of `CCCOC(=O)N(Cc1ccccc1)c1ccc2nc(CCC)n(Cc3ccc(-c4ccccc4-c4nnn[nH]4)cc3)c(=O)c2c1` [Example 17], the logP came to 5. The same measure, in the same setting: under `CCCCOC(=O)N(CCCC)c1ccc2nc(CCC)n(Cc3ccc(-c4ccccc4-c4nn[nH]n4)cc3)c(=O)c2c1` [Example 24] stands 6.

Compound `CCCc1nc2ccc(N(Cc3ccccc3)C(=O)N(C)CC)cc2c(=O)n1Cc1ccc(-c2ccccc2-c2nn[nH]n2)cc1` [Example 30] yielded a logP of 4.3.

Take `CCCCCN(C(=O)c1ccccc1)c1ccc2nc(CCC)n(Cc3ccc(-c4ccccc4-c4nn[nH]n4)cc3)c(=O)c2c1` [Example 33, 2-propyl-6-(N-benzoyl-N-pentyl)-amino-3[(2'-(tetrazol-5-yl)biphen-4-yl)methyl]quinazolin-4(3H)-one]: the logP worked out at 5.1. In the case of `CCCCCN(C(=O)c1ccncc1)c1ccc2nc(CCC)n(Cc3ccc(-c4ccccc4-c4nnn[nH]4)cc3)c(=O)c2c1` [Example 35], the logP worked out at 4.3. On the same count and under the same terms, to `CCCc1nc2ccc(N(Cc3ccccc3)C(=O)c3ccccc3)cc2c(=O)n1Cc1ccc(-c2ccccc2-c2nn[nH]n2)cc1` [Example 36] belongs 4.5; to `CCCCCN(C(=O)c1ccc(Cl)cc1)c1ccc2nc(CCC)n(Cc3ccc(-c4ccccc4-c4nn[nH]n4)cc3)c(=O)c2c1` [Example 37], above 6. `CCCCC(=O)N(Cc1ccccc1)c1ccc2nc(CCC)n(Cc3ccc(-c4ccccc4-c4nn[nH]n4)cc3)c(=O)c2c1` [Example 42]: the logP stood at 5.4. Still for that read-out and setting: to `CCCCCN(C(=O)c1ccc(F)cc1)c1ccc2nc(CCC)n(Cc3ccc(-c4ccccc4-c4nn[nH]n4)cc3)c(=O)c2c1` [Example 43] belongs 5.2; to `CCCCN(C(=O)c1ccc(F)cc1)c1ccc2nc(CCC)n(Cc3ccc(-c4ccccc4-c4nn[nH]n4)cc3)c(=O)c2c1` [Example 44], 4.7. On the same count and under the same terms, to `CCCc1nc2ccc(N(Cc3ccccc3)C(=O)OCC)cc2c(=O)n1Cc1ccc(-c2ccccc2-c2nn[nH]n2)cc1` [Example 56] belongs 4.7; to `CCc1nc2ccc(N(Cc3ccccc3)C(=O)c3ccccc3)cc2c(=O)n1Cc1ccc(-c2ccccc2-c2nnn[nH]2)cc1` [Example 57], 4.1.

`CCCCN(C(=O)c1ccncc1)c1ccc2nc(CCC)n(Cc3ccc(-c4ccccc4-c4nn[nH]n4)cc3)c(=O)c2c1` [Example 68] registered a logP of 4.1. For the compound `Cc1nc2ccc(N(Cc3ccccc3)C(=O)c3ccccc3)cc2c(=O)n1Cc1ccc(-c2ccccc2-c2nnn[nH]2)cc1` [Example 69], the “log P” value is 3.5.

Turning to `CC(C)c1nc2ccc(N(Cc3ccccc3)C(=O)c3ccccc3)cc2c(=O)n1Cc1ccc(-c2ccccc2-c2nnn[nH]2)cc1` [Example 70], the “log P” value was 4.5. Take `CCCCCN(C(=O)c1cccnc1)c1ccc2nc(CCC)n(Cc3ccc(-c4ccccc4-c4nn[nH]n4)cc3)c(=O)c2c1` [Example 72]: the logP came out at 4.3. Consider `CCCCCN(C(=O)c1ccccc1)c1ccc2nc(CCC)n(Cc3ccc(-c4ccccc4S(=O)(=O)NC(=O)C4CC4)cc3)c(=O)c2c1` [Example 73], for which the logP was found to be 5.3. Regarding `CCCCCN(C(=O)c1ccccc1)c1ccc2nc(CCC)n(Cc3ccc(-c4ccccc4S(=O)(=O)NC(=O)c4ccccc4)cc3)c(=O)c2c1` [Example 74], the logP came to 5.5.

In the case of `CCc1nc2ccc(N(Cc3ccccc3)C(=O)c3ccncc3)cc2c(=O)n1Cc1ccc(-c2ccccc2-c2nn[nH]n2)cc1` [Example 75], the “log P” value was determined as 3.4. As to `CCCCCN(C(=O)c1ccc([S+](C)[O-])cc1)c1ccc2nc(CCC)n(Cc3ccc(-c4ccccc4-c4nn[nH]n4)cc3)c(=O)c2c1` (stereo not drawn) [Example 81], the logP came out at 4.3. Regarding `CCCCCN(C(=O)c1ccc(S(C)(=O)=O)cc1)c1ccc2nc(CCC)n(Cc3ccc(-c4ccccc4-c4nn[nH]n4)cc3)c(=O)c2c1` [Example 83], the logP stood at 4.4.

`CCc1nc2ccc(N(Cc3ccccc3Cl)C(=O)c3ccccc3)cc2c(=O)n1Cc1ccc(-c2ccccc2-c2nn[nH]n2)cc1` [Example 84]: the logP stood at 4.4.

In the case of `CCc1nc2ccc(N(CC=C(C)C)C(=O)c3ccccc3)cc2c(=O)n1Cc1ccc(-c2ccccc2-c2nn[nH]n2)cc1` [Example 85], the “log P” value is 4.2.

Take `CCCc1nc2ccc(N(CCC)C(=O)c3ccc(F)cc3)cc2c(=O)n1Cc1ccc(-c2ccccc2-c2nn[nH]n2)cc1` [Example 90]: the logP worked out at 4.3.

The compound `CC(C)c1nc2ccc(N(Cc3ccccc3Cl)C(=O)C3CC3)cc2c(=O)n1Cc1ccc(-c2ccccc2-c2nn[nH]n2)cc1` [Example 94] gave a logP of 4.8. The same measure, in the same setting: to `O=C(c1ccccc1)N(Cc1ccccc1)c1ccc2ncn(Cc3ccc(-c4ccccc4-c4nn[nH]n4)cc3)c(=O)c2c1` [Example 95] belongs 3.3; to `CCC(C)c1nc2ccc(N(Cc3ccccc3)C(=O)c3ccccc3)cc2c(=O)n1Cc1ccc(-c2ccccc2-c2nn[nH]n2)cc1` (stereo not drawn) [Example 100], 4.9. `CCCc1nc2ccc(N(CC(C)C)C(=O)c3ccccc3)cc2c(=O)n1Cc1ccc(-c2ccccc2-c2nnn[nH]2)cc1` [Example 102] yielded a logP of 4.5. The compound `CCCc1nc2ccc(N(CCCC(=O)OCC)C(=O)c3ccccc3)cc2c(=O)n1Cc1ccc(-c2ccccc2-c2nnn[nH]2)cc1` [Example 103] gave a logP of 4.1. For the compound `CCCCCN(C(=O)c1ccccc1)c1ccc2nc(CCC)n(Cc3ccc(-c4ccccc4NS(=O)(=O)C(F)(F)F)cc3)c(=O)c2c1` [Example 104], the logP came out at 5.7. Compound `CCCc1nc2ccc(N(CCCC(=O)O)C(=O)c3ccccc3)cc2c(=O)n1Cc1ccc(-c2ccccc2-c2nnn[nH]2)cc1` [Example 105] displayed a logP of 2.3. Turning to `Cc1nc2ccc(N(Cc3ccccc3Cl)C(=O)c3ccccc3)cc2c(=O)n1Cc1ccc(-c2ccccc2-c2nn[nH]n2)cc1` [Example 106], the logP came out at 3.8.

Turning to `Cc1nc2ccc(N(Cc3ccccc3)C(=O)c3ccncc3)cc2c(=O)n1Cc1ccc(-c2ccccc2-c2nnn[nH]2)cc1` [Example 107], the logP came to 2.9. For the compound `CCCc1nc2ccc(N(C)C(C)=O)cc2c(=O)n1Cc1ccc(-c2ccccc2S(=O)(=O)NC(=O)C2CC2)cc1` [Example 108], the logP is 2.9. On the same count and under the same terms, under `Cc1nc2ccc(N(Cc3ccccc3Cl)C(=O)c3ccncc3)cc2c(=O)n1Cc1ccc(-c2ccccc2-c2nnn[nH]2)cc1` [Example 110] stands 3.1; under `CCc1nc2ccc(N(Cc3ccc(I)cc3)C(=O)c3ccccc3)cc2c(=O)n1Cc1ccc(-c2ccccc2-c2nnn[nH]2)cc1` [Example 112], 5.

Compound `CCCCCN(C(=O)c1cccs1)c1ccc2nc(CCC)n(Cc3ccc(-c4ccccc4-c4nnn[nH]4)cc3)c(=O)c2c1` [Example 113] showed a logP of 5.1. The compound `CCCc1nc2ccc(N(C)C(=O)c3cccs3)cc2c(=O)n1Cc1ccc(-c2ccccc2-c2nnn[nH]2)cc1` [Example 114] registered a logP of 3.4. Compound `CCc1nc2ccc(N(Cc3ccccc3I)C(=O)c3ccccc3)cc2c(=O)n1Cc1ccc(-c2ccccc2-c2nn[nH]n2)cc1` [Example 117] yielded a logP of 4.6.

Consider `CCc1nc2ccc(N(Cc3ccccc3)C(=O)c3cccs3)cc2c(=O)n1Cc1ccc(-c2ccccc2-c2nn[nH]n2)cc1` [Example 118], for which the “log P” value is on record as 4.1. Compound `CCCc1nc2ccc(N(CCOC)C(=O)c3ccncc3)cc2c(=O)n1Cc1ccc(-c2ccccc2-c2nnn[nH]2)cc1` [Example 119] showed a logP of 3. In turn, `CCCc1nc2ccc(N(CC(=O)O)C(=O)c3ccccc3)cc2c(=O)n1Cc1ccc(-c2ccccc2-c2nnn[nH]2)cc1` [Example 120] registered a logP of 2.1. As for `CCCCCN(C(=O)c1ccc(Cl)cc1)c1ccc2nc(COC)n(Cc3ccc(-c4ccccc4-c4nnn[nH]4)cc3)c(=O)c2c1` [Example 121], the logP is 4.6. The same measure, in the same setting: to `CCc1nc2ccc(N(Cc3ccccc3)C(=O)c3ccco3)cc2c(=O)n1Cc1ccc(-c2ccccc2-c2nnn[nH]2)cc1` [Example 122] belongs 3.9; to `CCCc1nc2ccc(N(CC)C(=O)c3cccs3)cc2c(=O)n1Cc1ccc(-c2ccccc2-c2nnn[nH]2)cc1` [Example 124], 3.8; to `CCCc1nc2ccc(N(CC)C(=O)c3ccco3)cc2c(=O)n1Cc1ccc(-c2ccccc2-c2nnn[nH]2)cc1` [Example 125], 3.5. For `CCCc1nc2ccc(N(Cc3ccccc3)C(=O)c3ccccc3OC)cc2c(=O)n1Cc1ccc(-c2ccccc2-c2nn[nH]n2)cc1` [Example 126], the logP worked out at 5. For the compound `CCCc1nc2ccc(N(CCC)C(=O)c3ccccc3OC)cc2c(=O)n1Cc1ccc(-c2ccccc2-c2nnn[nH]2)cc1` [Example 127], the logP stood at 4.1. Compound `CCCCCN(C(=O)c1ccc(OCc2ccccc2)cc1)c1ccc2nc(CCC)n(Cc3ccc(-c4ccccc4-c4nnn[nH]4)cc3)c(=O)c2c1` [Example 128] came in with a logP above 5.7. In turn, `CCCc1nc2ccc(N(CCC)C(=O)c3ccc(OCc4ccccc4)cc3)cc2c(=O)n1Cc1ccc(-c2ccccc2-c2nnn[nH]2)cc1` [Example 129] showed a logP of 5.5.

The compound `CCCCCN(C(=O)c1ccc(O)cc1)c1ccc2nc(CCC)n(Cc3ccc(-c4ccccc4-c4nnn[nH]4)cc3)c(=O)c2c1` [Example 130] returned a logP of 4.7. `CCCc1nc2ccc(N(CCC)C(=O)c3ccc(O)cc3)cc2c(=O)n1Cc1ccc(-c2ccccc2-c2nnn[nH]2)cc1` [Example 131]: the logP was determined as 3.8. As for `CCCc1nc2ccc(N(Cc3ccccc3)C(=O)Cn3ccnc3)cc2c(=O)n1Cc1ccc(-c2ccccc2-c2nn[nH]n2)cc1` [Example 132], the logP was 3.6. In turn, `CCCc1nc2ccc(N(Cc3ccccc3)C(=O)CN3CCN(C(=O)OC(C)(C)C)CC3)cc2c(=O)n1Cc1ccc(-c2ccccc2-c2nnn[nH]2)cc1` [Example 133] showed a logP of 5.3.

Consider `CCCc1nc2ccc(N(Cc3ccccc3)C(=O)c3cccnc3)cc2c(=O)n1Cc1ccc(-c2ccccc2-c2nnn[nH]2)cc1` [Example 134], for which the logP came out at 3.7.

Regarding `CCCc1nc2ccc(N(Cc3ccccn3)C(=O)Oc3ccccc3)cc2c(=O)n1Cc1ccc(-c2ccccc2-c2nn[nH]n2)cc1` [Example 135], the logP was 3.6.

One may read the logP as the decadic logarithm of the partition coefficient of the neutral form, usually between octanol and water. Lower therefore signals lower lipophilicity. Broadly, the log P is a log measure of how a compound divides between an organic and an aqueous phase. A lower log P goes with lower lipophilicity.

Values taken from patent publication US5385894A, “Disubstituted 6-aminoquinazolinones” (Merck & Co., Inc., priority 1994, dated 1995).
